Assay results: paper PMC8222254, “Self-assembly of an anion receptor with metal-dependent kinase inhibition and potent in vitro anti-cancer properties” (Nature Communications, 2021)
“And” between values parts separate entries of the source, which are not always exact repeats. Equal entries are not always repeated.

Assays:
Experiment in all cases: Kinase inhibition screen, cell-free 33P ATP assay at 10 μM
Type in all cases: biochemical
[1] = target: T1, 140 purified human kinases (Homo sapiens, UniProt Q15831)
T1 sequence (Q15831 1-433): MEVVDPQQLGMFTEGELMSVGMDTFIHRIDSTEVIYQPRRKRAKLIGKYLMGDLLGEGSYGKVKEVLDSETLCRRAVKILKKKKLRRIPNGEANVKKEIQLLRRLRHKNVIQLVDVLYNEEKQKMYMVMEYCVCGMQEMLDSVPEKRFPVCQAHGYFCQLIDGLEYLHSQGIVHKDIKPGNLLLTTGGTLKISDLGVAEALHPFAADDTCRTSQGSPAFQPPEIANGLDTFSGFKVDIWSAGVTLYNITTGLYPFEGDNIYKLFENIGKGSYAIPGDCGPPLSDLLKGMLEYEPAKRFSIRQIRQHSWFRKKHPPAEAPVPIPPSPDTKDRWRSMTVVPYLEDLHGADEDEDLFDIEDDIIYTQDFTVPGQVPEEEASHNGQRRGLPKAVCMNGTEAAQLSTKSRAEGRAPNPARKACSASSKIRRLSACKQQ
Method: (§1) [L2Cu3]^6+ and [L2Zn3]^6+ were submitted to the MRC Protein Phosphorylation and Ubiquitination Unit International Centre for Kinase Profiling (University of Dundee) and tested in duplicate (at 10 μM) against a series of 140 purified human kinases in a cell-free kinase assay using ^33P ATP[55],[56]. The kinase gene IDs from the screen were then translated into common IDs (HGNC symbol) using biomaRt package[57],[58] in R[59] and R Studio[60] and used as input to the KinMap programme.

[2] = target: 140 purified human kinases (Homo sapiens, UniProt P27448)
140 purified human kinases (Homo sapiens, UniProt P27448), sequence (P27448 whole entry): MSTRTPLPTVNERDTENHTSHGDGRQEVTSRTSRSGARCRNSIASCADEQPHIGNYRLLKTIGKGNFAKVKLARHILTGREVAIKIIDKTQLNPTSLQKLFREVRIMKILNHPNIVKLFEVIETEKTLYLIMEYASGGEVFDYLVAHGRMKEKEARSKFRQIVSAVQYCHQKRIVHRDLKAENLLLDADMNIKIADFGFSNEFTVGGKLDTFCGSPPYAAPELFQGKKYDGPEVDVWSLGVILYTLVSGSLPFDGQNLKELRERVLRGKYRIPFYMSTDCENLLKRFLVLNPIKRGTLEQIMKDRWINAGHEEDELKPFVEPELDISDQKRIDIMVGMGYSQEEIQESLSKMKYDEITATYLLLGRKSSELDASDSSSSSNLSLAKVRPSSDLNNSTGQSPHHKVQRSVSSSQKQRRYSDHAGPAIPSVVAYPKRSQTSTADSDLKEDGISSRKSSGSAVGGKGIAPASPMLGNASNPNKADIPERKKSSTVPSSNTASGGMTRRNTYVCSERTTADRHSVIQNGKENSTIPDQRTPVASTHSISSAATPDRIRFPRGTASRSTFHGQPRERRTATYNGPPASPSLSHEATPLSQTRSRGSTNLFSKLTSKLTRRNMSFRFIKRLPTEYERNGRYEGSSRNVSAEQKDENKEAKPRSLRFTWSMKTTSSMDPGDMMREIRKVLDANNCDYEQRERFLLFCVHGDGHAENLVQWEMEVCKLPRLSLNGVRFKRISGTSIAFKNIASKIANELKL
Method: as §1

[3] = target: T2, 140 purified human kinases (Homo sapiens, UniProt O14965); conditions: Aurora A
T2 sequence (O14965 1-403): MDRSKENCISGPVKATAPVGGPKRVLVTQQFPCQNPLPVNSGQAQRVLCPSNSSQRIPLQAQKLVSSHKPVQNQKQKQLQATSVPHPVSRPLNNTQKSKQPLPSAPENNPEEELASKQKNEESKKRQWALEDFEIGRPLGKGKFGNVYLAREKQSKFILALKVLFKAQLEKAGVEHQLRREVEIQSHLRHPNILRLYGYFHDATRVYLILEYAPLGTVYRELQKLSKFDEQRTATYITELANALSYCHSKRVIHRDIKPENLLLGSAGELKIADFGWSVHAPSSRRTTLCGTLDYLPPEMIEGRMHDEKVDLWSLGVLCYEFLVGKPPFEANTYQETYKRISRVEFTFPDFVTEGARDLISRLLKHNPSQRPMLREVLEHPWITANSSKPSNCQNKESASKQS
Method: as §1

[4] = target: T3, 140 purified human kinases (Homo sapiens, UniProt Q8TD08)
T3 sequence (Q8TD08 1-544): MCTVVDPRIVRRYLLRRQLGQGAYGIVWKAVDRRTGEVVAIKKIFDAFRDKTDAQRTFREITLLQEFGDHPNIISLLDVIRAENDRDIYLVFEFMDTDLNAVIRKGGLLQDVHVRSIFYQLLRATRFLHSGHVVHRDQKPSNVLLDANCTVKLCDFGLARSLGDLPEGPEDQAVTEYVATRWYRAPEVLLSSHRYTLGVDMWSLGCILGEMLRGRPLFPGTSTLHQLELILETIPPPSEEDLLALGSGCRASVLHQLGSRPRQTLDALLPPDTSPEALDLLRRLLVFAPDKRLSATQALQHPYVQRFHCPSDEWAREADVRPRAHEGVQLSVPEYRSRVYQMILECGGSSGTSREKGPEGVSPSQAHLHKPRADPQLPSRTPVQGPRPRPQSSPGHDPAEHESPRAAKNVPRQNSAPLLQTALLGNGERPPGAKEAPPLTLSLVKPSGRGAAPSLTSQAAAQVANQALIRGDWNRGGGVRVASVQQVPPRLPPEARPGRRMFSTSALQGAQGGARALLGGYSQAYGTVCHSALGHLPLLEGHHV
Method: as §1

[5] = target: 140 purified human kinases (Homo sapiens, UniProt P50750)
140 purified human kinases (Homo sapiens, UniProt P50750), sequence (P50750 whole entry): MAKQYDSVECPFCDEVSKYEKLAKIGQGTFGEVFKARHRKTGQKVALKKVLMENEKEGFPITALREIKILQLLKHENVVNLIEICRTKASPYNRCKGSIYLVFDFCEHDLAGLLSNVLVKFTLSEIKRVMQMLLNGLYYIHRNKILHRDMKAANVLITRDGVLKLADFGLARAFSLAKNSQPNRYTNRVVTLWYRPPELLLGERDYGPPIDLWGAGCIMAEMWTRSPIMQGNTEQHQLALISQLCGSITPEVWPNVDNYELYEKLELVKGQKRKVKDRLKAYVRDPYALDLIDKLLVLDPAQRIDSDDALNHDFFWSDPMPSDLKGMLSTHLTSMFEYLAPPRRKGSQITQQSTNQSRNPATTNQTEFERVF
Method: as §1

[6] = target: 140 purified human kinases (Homo sapiens, UniProt P17948); conditions: VEG-FR
140 purified human kinases (Homo sapiens, UniProt P17948), sequence (P17948 27-1338): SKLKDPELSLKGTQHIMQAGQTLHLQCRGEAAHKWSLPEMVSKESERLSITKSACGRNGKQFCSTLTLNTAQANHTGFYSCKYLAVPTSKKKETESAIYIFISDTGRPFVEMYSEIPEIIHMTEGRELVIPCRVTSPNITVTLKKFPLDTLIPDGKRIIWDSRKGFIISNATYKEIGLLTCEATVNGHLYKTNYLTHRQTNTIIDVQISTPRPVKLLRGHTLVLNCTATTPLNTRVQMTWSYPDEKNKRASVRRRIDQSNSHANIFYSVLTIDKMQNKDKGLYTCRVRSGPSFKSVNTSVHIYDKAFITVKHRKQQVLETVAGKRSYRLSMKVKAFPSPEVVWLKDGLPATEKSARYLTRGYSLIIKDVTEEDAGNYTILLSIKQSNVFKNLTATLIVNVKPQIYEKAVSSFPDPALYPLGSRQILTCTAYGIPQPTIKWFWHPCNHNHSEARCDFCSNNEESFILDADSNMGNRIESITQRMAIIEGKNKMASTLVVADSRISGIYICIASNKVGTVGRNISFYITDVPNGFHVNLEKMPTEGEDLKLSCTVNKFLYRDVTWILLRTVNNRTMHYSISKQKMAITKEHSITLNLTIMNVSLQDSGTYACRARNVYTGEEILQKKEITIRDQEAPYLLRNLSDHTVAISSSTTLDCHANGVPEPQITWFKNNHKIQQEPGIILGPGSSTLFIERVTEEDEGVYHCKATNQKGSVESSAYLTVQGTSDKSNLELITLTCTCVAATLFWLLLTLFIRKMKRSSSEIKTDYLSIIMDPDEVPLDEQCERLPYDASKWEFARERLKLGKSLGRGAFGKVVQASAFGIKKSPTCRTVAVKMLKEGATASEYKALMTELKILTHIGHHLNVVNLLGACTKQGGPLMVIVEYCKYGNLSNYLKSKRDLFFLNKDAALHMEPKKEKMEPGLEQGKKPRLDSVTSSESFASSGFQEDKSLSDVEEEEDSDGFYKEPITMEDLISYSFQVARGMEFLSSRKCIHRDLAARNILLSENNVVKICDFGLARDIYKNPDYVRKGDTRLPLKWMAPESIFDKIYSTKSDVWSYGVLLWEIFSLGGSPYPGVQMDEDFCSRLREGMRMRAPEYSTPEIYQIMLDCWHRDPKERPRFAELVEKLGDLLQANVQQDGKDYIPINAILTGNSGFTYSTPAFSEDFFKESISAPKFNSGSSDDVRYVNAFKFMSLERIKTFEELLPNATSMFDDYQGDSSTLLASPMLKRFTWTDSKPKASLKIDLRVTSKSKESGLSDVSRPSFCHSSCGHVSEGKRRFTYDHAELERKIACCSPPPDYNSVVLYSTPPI
Method: as §1

[7] = target: 140 purified human kinases (Homo sapiens, UniProt Q15418)
Method: as §1

[8] = target: 140 purified human kinases (Homo sapiens, UniProt O75582)
140 purified human kinases (Homo sapiens, UniProt O75582), sequence (O75582 whole entry): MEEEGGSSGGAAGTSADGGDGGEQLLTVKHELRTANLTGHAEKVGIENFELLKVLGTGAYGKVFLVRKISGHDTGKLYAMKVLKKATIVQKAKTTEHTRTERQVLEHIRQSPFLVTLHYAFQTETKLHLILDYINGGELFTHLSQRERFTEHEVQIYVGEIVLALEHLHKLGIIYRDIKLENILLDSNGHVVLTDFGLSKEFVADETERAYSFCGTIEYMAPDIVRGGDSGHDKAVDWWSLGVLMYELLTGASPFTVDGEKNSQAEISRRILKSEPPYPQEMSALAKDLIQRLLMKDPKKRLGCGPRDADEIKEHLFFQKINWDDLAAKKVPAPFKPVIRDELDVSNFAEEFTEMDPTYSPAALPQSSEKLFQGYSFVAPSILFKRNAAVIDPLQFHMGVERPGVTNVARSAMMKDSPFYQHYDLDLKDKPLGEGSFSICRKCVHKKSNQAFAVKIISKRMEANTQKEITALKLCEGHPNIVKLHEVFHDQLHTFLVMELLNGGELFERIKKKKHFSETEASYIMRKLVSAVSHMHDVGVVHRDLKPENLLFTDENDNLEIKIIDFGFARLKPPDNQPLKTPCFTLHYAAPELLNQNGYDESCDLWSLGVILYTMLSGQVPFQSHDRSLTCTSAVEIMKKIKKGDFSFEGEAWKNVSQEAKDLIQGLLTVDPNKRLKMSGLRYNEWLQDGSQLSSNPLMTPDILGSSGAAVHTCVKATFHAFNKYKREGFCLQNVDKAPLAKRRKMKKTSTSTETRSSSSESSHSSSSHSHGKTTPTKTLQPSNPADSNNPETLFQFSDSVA
Method: as §1

[9] = target: 140 purified human kinases (Homo sapiens, UniProt P51812)
Method: as §1

[10] = target: 140 purified human kinases (Homo sapiens, UniProt P08069); conditions: IGF-1R
140 purified human kinases (Homo sapiens, UniProt P08069), sequence (P08069 31-1367): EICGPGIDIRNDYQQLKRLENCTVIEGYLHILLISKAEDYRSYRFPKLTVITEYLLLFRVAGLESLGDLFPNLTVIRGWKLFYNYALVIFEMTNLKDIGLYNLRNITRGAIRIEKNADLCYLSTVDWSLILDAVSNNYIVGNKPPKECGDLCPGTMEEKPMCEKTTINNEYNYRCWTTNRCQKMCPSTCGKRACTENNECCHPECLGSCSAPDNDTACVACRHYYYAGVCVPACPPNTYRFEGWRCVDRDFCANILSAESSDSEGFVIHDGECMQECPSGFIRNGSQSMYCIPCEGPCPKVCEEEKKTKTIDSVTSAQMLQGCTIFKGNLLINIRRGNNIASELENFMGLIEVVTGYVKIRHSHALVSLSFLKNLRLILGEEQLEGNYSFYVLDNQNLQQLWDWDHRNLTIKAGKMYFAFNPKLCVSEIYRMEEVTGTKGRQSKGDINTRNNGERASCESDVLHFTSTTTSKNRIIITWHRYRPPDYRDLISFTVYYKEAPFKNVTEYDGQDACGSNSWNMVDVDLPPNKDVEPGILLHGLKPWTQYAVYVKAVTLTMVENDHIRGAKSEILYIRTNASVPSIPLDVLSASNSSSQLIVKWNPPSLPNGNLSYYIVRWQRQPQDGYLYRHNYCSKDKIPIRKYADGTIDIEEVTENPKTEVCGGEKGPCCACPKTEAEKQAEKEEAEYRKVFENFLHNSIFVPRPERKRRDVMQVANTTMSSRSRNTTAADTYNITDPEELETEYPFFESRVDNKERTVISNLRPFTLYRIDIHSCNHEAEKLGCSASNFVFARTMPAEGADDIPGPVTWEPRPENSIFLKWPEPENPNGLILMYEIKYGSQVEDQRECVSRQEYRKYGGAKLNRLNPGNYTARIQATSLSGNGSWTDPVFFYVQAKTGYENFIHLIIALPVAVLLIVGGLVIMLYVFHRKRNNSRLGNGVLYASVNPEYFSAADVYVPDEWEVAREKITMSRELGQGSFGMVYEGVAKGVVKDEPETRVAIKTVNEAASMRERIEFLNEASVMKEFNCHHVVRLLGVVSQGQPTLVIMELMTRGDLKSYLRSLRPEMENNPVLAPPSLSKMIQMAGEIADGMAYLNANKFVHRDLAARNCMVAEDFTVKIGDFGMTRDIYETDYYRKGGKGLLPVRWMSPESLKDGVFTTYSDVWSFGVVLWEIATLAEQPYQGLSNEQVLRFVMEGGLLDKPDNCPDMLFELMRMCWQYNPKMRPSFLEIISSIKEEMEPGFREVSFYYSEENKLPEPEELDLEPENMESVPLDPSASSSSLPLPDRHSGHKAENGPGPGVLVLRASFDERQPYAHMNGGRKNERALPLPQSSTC
Method: as §1

[Cu+2].[Cu+2].[Cu+2].c1ccc(-c2csc(NCCN(CCNc3nc(-c4ccccn4)cs3)CCNc3nc(-c4ccccn4)cs3)n2)nc1.c1ccc(-c2csc(NCCN(CCNc3nc(-c4ccccn4)cs3)CCNc3nc(-c4ccccn4)cs3)n2)nc1 [[L2Cu3]6+] was tested, and the “% Inhibition Run 1” value ([1]; LKB1) was 22.9%, the “% Inhibition Run 2” value ([1]; LKB1) was 29.1% and the “% Inhibition, Mean” value ([1]; LKB1) was 26%. For the same compound, the mean % activity ([1]; LKB1) was 74%, the “% activity” value ([1]; LKB1, Run 1) was 77.1% and the “% activity” value ([1]; LKB1, Run 2) was 70.9%. The “% Inhibition Run 1” value ([2]; MARK3) was 28.5%, the “% Inhibition Run 2” value ([2]; MARK3) was 28.2% and the “% Inhibition, Mean” value ([2]; MARK3) was 28%. For the same compound, the mean % activity ([2]; MARK3) was 72%, the “% activity” value ([2]; MARK3, Run 1) was 71.5% and the “% activity” value ([2]; MARK3, Run 2) was 71.8%. The “% Inhibition Run 1” value [3] was 30.9%, the “% Inhibition Run 2” value [3] was 28.1% and the “% Inhibition, Mean” value [3] was 30%. For the same compound, the mean % activity [3] was 71%, the “% activity” value ([3]; Run 1) was 69.1% and the “% activity” value ([3]; Run 2) was 71.9%. For the same compound, the “% Activation, Mean value” ([4]; ERK8) was 27%, the “% Inhibition Run 1” value ([4]; ERK8) was -16.9% and the “% Inhibition Run 2” value ([4]; ERK8) was -37.3%. The “% Inhibition, Mean” value ([4]; ERK8) was -27%, the mean % activity ([4]; ERK8) was 127% and the “% activity” value ([4]; ERK8, Run 1) was 116.9%. The “% activity” value ([4]; ERK8, Run 2) was 137.3%, the “% Activity Run 1” value ([4]; ERK8, 10 µM) was 116.90% and the “% Activity Run 2” value ([4]; ERK8, 10 µM) was 137.30%. The “% Activation, Mean value” ([5]; CDK9-Cyclin T1) was 18%, the “% Inhibition Run 1” value ([5]; CDK9-Cyclin T1) was -1.8% and the “% Inhibition Run 2” value ([5]; CDK9-Cyclin T1) was -34.5%. For the same compound, the “% Inhibition, Mean” value ([5]; CDK9-Cyclin T1) was -18%, the mean % activity ([5]; CDK9-Cyclin T1) was 118% and the “% activity” value ([5]; CDK9-Cyclin T1, Run 1) was 101.8%. The “% activity” value ([5]; CDK9-Cyclin T1, Run 2) was 134.5%, the “% Activity Run 1” value ([5]; CDK9-Cyclin T1, 10 µM) was 101.80% and the “% Activity Run 2” value ([5]; CDK9-Cyclin T1, 10 µM) was 134.50%. The “% Inhibition Run 1” value [6] was 28.1%, the “% Inhibition Run 2” value [6] was 27.2% and the “% Inhibition, Mean” value [6] was 28%. For the same compound, the mean % activity [6] was 72%, the “% activity” value ([6]; Run 1) was 71.9% and the “% activity” value ([6]; Run 2) was 72.8%. The “% Inhibition Run 1” value ([7]; RSK1) was 96.7%, the “% Inhibition Run 2” value ([7]; RSK1) was 97% and the “% Inhibition, Mean” value ([7]; RSK1) was 97%. The mean % activity ([7]; RSK1) was 3%, the “% activity” value ([7]; RSK1, Run 1) was 3.3% and the “% activity” value ([7]; RSK1, Run 2) was 3%. For the same compound, the “% Activity inhibition Mean” value ([7]; RSK1, 10 µM) was 96.9%, the “% Activity inhibition Run 1” value ([7]; RSK1, 10 µM) was 96.7% and the “% Activity inhibition Run 2” value ([7]; RSK1, 10 µM) was 97%. For the same compound, the “% Activity remaining Run 1” value ([7]; RSK1, 10 µM) was 3.30%, the “% Activity remaining Run 2” value ([7]; RSK1, 10 µM) was 3.00% and the “% Inhibition Run 1” value ([8]; MSK1) was 67.5%. For the same compound, the “% Inhibition Run 2” value ([8]; MSK1) was 74.8%, the “% Inhibition, Mean” value ([8]; MSK1) was 71% and the mean % activity ([8]; MSK1) was 29%. The “% activity” value ([8]; MSK1, Run 1) was 32.5%, the “% activity” value ([8]; MSK1, Run 2) was 25.2% and the “% Inhibition Run 1” value ([9]; RSK2) was 87.4%. For the same compound, the “% Inhibition Run 2” value ([9]; RSK2) was 87.7%, the “% Inhibition, Mean” value ([9]; RSK2) was 88% and the mean % activity ([9]; RSK2) was 12%. The “% activity” value ([9]; RSK2, Run 1) was 12.6%, the “% activity” value ([9]; RSK2, Run 2) was 12.3% and the “% Inhibition Run 1” value [10] was 0%. For the same compound, the “% Inhibition Run 2” value [10] was 16.4%, the “% Inhibition, Mean” value [10] was 8% and the mean % activity [10] was 92%. The “% activity” value ([10]; Run 1) was 100% and the “% activity” value ([10]; Run 2) was 83.6%.

With CC(=O)[O-].CC(=O)[O-].CC(=O)[O-].CC(=O)[O-].CC(=O)[O-].CC(=O)[O-].[Zn+2].[Zn+2].[Zn+2].c1ccc(-c2csc(NCCN(CCNc3nc(-c4ccccn4)cs3)CCNc3nc(-c4ccccn4)cs3)n2)nc1.c1ccc(-c2csc(NCCN(CCNc3nc(-c4ccccn4)cs3)CCNc3nc(-c4ccccn4)cs3)n2)nc1 [[L2Zn3]6+] the “% Activation, Mean value” ([1]; LKB1) was 9%, the “% Inhibition, Mean” value ([1]; LKB1) was -9% and the mean % activity ([1]; LKB1) was 109%. For the same compound, the “% activity” value ([1]; LKB1, duplicate runs) was 101% and 116%, the “% Inhibition, Mean” value ([2]; MARK3) was 4.7% and the “% Inhibition, Run 1 / Run 2” value ([2]; MARK3) was 1.7% and 8%. The mean % activity ([2]; MARK3) was 95%, the “% activity” value ([2]; MARK3, duplicate runs) was 98% and 92% and the “% Inhibition, Mean” value [3] was 83%. The “% Inhibition, Run 1 / Run 2” value [3] was 84% and 83%, the mean % activity [3] was 17% and the “% Activity inhibition Mean” value ([3]; 10 µM) was 83.5%. The “% Activity inhibition Run 1” value ([3]; 10 µM) was 84%, the “% Activity inhibition Run 2” value ([3]; 10 µM) was 83% and the “% Activity remaining Run 1” value ([3]; 10 µM) was 16%. The “% Activity remaining Run 2” value ([3]; 10 µM) was 17%, the “% activity” value ([3]; duplicate runs) was 16% and 17% and the “% Inhibition, Mean” value ([4]; ERK8) was 15%. For the same compound, the “% Inhibition, Run 1 / Run 2” value ([4]; ERK8) was 15%, the mean % activity ([4]; ERK8) was 85% and the “% activity” value ([4]; ERK8, duplicate runs) was 86% and 85%. The “% Activation, Mean value” ([5]; CDK9-Cyclin T1) was 6%, the “% Inhibition, Mean” value ([5]; CDK9-Cyclin T1) was -6% and the mean % activity ([5]; CDK9-Cyclin T1) was 106%. The “% activity” value ([5]; CDK9-Cyclin T1, duplicate runs) was 96% and 117%, the “% Inhibition, Mean” value [6] was 17% and the mean % activity [6] was 83%. The “% activity” value ([6]; duplicate runs) was 73% and 93%, the “% Inhibition, Mean” value ([7]; RSK1) was 73% and the “% Inhibition, Run 1 / Run 2” value ([7]; RSK1) was 76% and 70%. For the same compound, the mean % activity ([7]; RSK1) was 27%, the “% activity” value ([7]; RSK1, duplicate runs) was 24% and 30% and the “% Inhibition, Mean” value ([8]; MSK1) was 22%. The “% Inhibition, Run 1 / Run 2” value ([8]; MSK1) was 27% and 18%, the mean % activity ([8]; MSK1) was 78% and the “% activity” value ([8]; MSK1, duplicate runs) was 73% and 82%. For the same compound, the “% Inhibition, Mean” value ([9]; RSK2) was 44%, the “% Inhibition, Run 1 / Run 2” value ([9]; RSK2) was 50% and 39% and the mean % activity ([9]; RSK2) was 56%. For the same compound, the “% activity” value ([9]; RSK2, duplicate runs) was 50% and 61%, the “% Inhibition, Mean” value [10] was 0.5% and the mean % activity [10] was 100%. The “% activity” value ([10]; duplicate runs) was 92% and 107%.
